≈ marks a conversion by molar mass, not a printed value. Blank lines part the entries; values can stand above or below the compound they belong to.
What was measured:
Assay in all cases: ≥ marks a high value that may be exact or a test limit, other limits are often not marked, values filed in µg/mL are converted to µM
[1] = test system: Klebsiella pneumoniae ATCC 10031
[2] = test system: Salmonella enterica subsp. enterica serovar Typhimurium ATCC 14028
[3] = test system: Bacillus subtilis ATCC 6633
[4] = test system: Micrococcus luteus ATCC 10240
[5] = test system: Escherichia coli ATCC 25922
[6] = test system: Staphylococcus epidermidis ATCC 12228
[7] = test system: Pseudomonas aeruginosa ATCC 27853
[8] = test system: Staphylococcus aureus ATCC 6538P
[9] = test system: Shigella dysenteriae ATCC 9752
[10] = test system: Pseudomonas aeruginosa PAO1
Bacillus subtilis 168 = test system: Bacillus subtilis 168
Escherichia coli K-12 = test system: Escherichia coli K-12
[11] = test system: Staphylococcus aureus USA 300
[12] = test system: Pseudomonas syringae pv. syringae EPS 94
[13] = test system: Xanthomonas campestris pv. Vesicatoria 2133-2
[14] = test system: Erwinia amylovora PMV 6076
[15] = test system: Pseudomonas corrugata DSM 7228
[16] = test system: Pectobacterium carotovorum subsp. carotovorum DSM 30168
[17] = test system: Clavibacter michiganensis subsp. michiganensis DSM 46294
[18] = test system: Pseudomonas syringae pv. tomato DC3000
[19] = test system: Pseudomonas syringae pv. syringae DSM 10604
[20] = test system: Xanthomonas vesicatoria DSM 50861
[21] = test system: Escherichia coli K12 MG1655
[22] = test system: Mycobacterium tuberculosis H37Rv
[23] = test system: Salmonella enterica serovar Typhimurium
[24] = test system: Staphylococcus aureus ATCC 25923

MIC [1]: 8.44 µM (≈ 12.5 µg/mL)
MIC [2]: 67.5 µM (≈ 99.9 µg/mL)
MIC [3]: 4.25 µM (≈ 6.3 µg/mL)
MIC [4]: 2.09 µM (≈ 3.1 µg/mL)
MIC [5]: 16.9 µM (≈ 25 µg/mL)
MIC [6]: 4.25 µM (≈ 6.3 µg/mL)
MIC [7]: > 135 µM
MIC [8]: 4.25 µM (≈ 6.3 µg/mL)
MIC [9]: 8.44 µM (≈ 12.5 µg/mL)
Structure (SMILES): CC(C)C[C@H](NC(=O)[C@H](Cc1c[nH]c2ccccc12)NC(=O)CNC(=O)[C@H](CC(C)C)NC(=O)[C@@H](N)Cc1ccccc1)C(=O)N[C@@H](Cc1ccccc1)C(=O)N[C@@H](CCCCN)C(=O)N[C@@H](Cc1c[nH]c2ccccc12)C(=O)N[C@@H](C)C(=O)N[C@@H](Cc1c[nH]c2ccccc12)C(=O)N[C@@H](CCCCN)C(N)=O [FLGWLFKWAWK]

MIC [10]: > 100 µM
MIC (Bacillus subtilis 168): 3.12 µM (≈ 4.21 µg/mL)
MIC (Escherichia coli K-12): 25 µM (≈ 33.7 µg/mL)
MIC [11]: 1.56 µM (≈ 2.1 µg/mL)
Structure (SMILES): CC(C)C[C@H](NC(=O)[C@H](CC(C)C)NC(=O)[C@H](CCCCN)NC(=O)CNC(=O)[C@H](CC(C)C)NC(=O)[C@H](CC(C)C)NC(=O)[C@H](CO)NC(=O)[C@H](CC(C)C)NC(=O)[C@H](CC(C)C)NC(=O)[C@@H]1CCCN1C(=O)[C@H](CC(C)C)NC(=O)[C@H](CC(C)C)NC(=O)CN)C(N)=O [GLLPLLSLLGKLL]

MIC [12]: ≥ 100 µM
MIC [13]: ≥ 100 µM
MIC [14]: ≥ 100 µM
Structure (SMILES): CC(C)C[C@H](NC(=O)[C@H](CCC(=O)O)NC(=O)[C@H](CC(=O)O)NC(=O)[C@H](CCCCN)NC(=O)[C@H](CC(C)C)NC(=O)[C@H](Cc1cnc[nH]1)NC(=O)[C@H](CCC(=O)O)NC(=O)[C@H](Cc1c[nH]c2ccccc12)NC(=O)[C@H](CC(=O)O)NC(=O)[C@H](CCCCN)NC(=O)[C@H](CC(C)C)NC(=O)[C@H](Cc1cnc[nH]1)NC(=O)[C@H](CCC(=O)O)NC(=O)[C@H](Cc1c[nH]c2ccccc12)NC(=O)[C@H](CC(=O)O)NC(=O)[C@H](CCCCN)NC(=O)[C@H](CC(C)C)NC(=O)[C@H](Cc1cnc[nH]1)NC(=O)[C@H](CCC(=O)O)NC(=O)[C@H](Cc1c[nH]c2ccccc12)NC(=O)[C@H](CC(=O)O)NC(=O)[C@@H](N)CCCCN)C(=O)O [KDWEHLKDWEHLKDWEHLKDEL]

MIC [12]: 1.77 µM (≈ 4.47 µg/mL)
MIC [13]: 3.54 µM (≈ 8.95 µg/mL)
MIC [14]: 3.54 µM (≈ 8.95 µg/mL)
Structure (SMILES): CC[C@H](C)[C@H](NC(=O)[C@H](CCCCN)NC(=O)[C@H](CCCCN)NC(=O)[C@H](Cc1ccccc1)NC(=O)[C@H](CC(C)C)NC(=O)[C@H](CCCCN)NC(=O)[C@@H](N)CCCCN)C(=O)N[C@@H](CC(C)C)C(=O)N[C@@H](CCCCN)C(=O)N[C@@H](Cc1ccc(O)cc1)C(=O)N[C@@H](CC(C)C)C(=O)N[C@@H](C)C(=O)NCC(=O)N1CCC[C@H]1C(=O)N[C@@H](C)C(=O)N[C@@H](CCCCN)C(=O)N[C@@H](Cc1ccccc1)C(=O)N[C@@H](CC(C)C)C(=O)N[C@@H](Cc1cnc[nH]1)C(=O)N[C@@H](CO)C(=O)N[C@@H](C)C(=O)N[C@@H](CCCCN)C(=O)O [KKLFKKILKYLAGPAKFLHSAK]

MIC [12]: 1.77 µM (≈ 4.81 µg/mL)
MIC [13]: 1.77 µM (≈ 4.81 µg/mL)
MIC [14]: 3.54 µM (≈ 9.61 µg/mL)
Structure (SMILES): CC[C@H](C)[C@H](NC(=O)[C@H](CCCCN)NC(=O)[C@H](CCCCN)NC(=O)[C@H](Cc1ccccc1)NC(=O)[C@H](CC(C)C)NC(=O)[C@H](CCCCN)NC(=O)[C@@H](N)CCCCN)C(=O)N[C@@H](CC(C)C)C(=O)N[C@@H](CCCCN)C(=O)N[C@@H](Cc1ccc(O)cc1)C(=O)N[C@@H](CC(C)C)C(=O)N[C@@H](CCCCN)C(=O)N[C@@H](Cc1ccccc1)C(=O)N[C@@H](CC(C)C)C(=O)N[C@@H](Cc1cnc[nH]1)C(=O)N[C@@H](CO)C(=O)N[C@@H](C)C(=O)N[C@@H](CCCCN)C(=O)N[C@@H](CCCCN)C(=O)N[C@@H](CC(=O)O)C(=O)N[C@@H](CCC(=O)O)C(=O)N[C@@H](CC(C)C)C(=O)O [KKLFKKILKYLKFLHSAKKDEL]

MIC [15]: 3.96 µM (≈ 10 µg/mL)
MIC [16]: 3.96 µM (≈ 10 µg/mL)
MIC [17]: 0.989 µM (≈ 2.5 µg/mL)
MIC [18]: 3.96 µM (≈ 10 µg/mL)
MIC [19]: 3.96 µM (≈ 10 µg/mL)
MIC [20]: 0.989 µM (≈ 2.5 µg/mL)
Structure (SMILES): CC[C@H](C)[C@H](NC(=O)[C@H](C)NC(=O)[C@H](CC(C)C)NC(=O)[C@H](CCCN=C(N)N)NC(=O)[C@H](CC(C)C)NC(=O)[C@@H](NC(=O)[C@H](CCCN=C(N)N)NC(=O)[C@H](CC(C)C)NC(=O)[C@@H](NC(=O)[C@H](CC(C)C)NC(=O)[C@H](CCCN=C(N)N)NC(=O)[C@H](CCCN=C(N)N)NC(=O)[C@@H](N)CCCCN)[C@@H](C)CC)[C@@H](C)CC)C(=O)N[C@@H](CCCN=C(N)N)C(=O)N[C@H](C(=O)N[C@@H](CC(C)C)C(=O)N[C@H](C(=O)N[C@@H](CCCCN)C(=O)N[C@@H](CCCCN)C(=O)N[C@@H](CCCN=C(N)N)C(N)=O)C(C)C)[C@@H](C)CC [KRRLILRILRLAIRILVKKR]

MIC [21]: 7.95 µM (≈ 16 µg/mL)
Structure (SMILES): CC(C)C[C@H](NC(=O)[C@H](CCCCN)NC(=O)[C@@H](N)CCCN=C(N)N)C(=O)N[C@@H](C)C(=O)N[C@@H](Cc1ccccc1)C(=O)N[C@@H](CCCCN)C(=O)N1CCC[C@H]1C(=O)N[C@@H](CC(C)C)C(=O)N[C@@H](CCCCN)C(=O)N[C@@H](CCCCN)C(=O)N[C@@H](Cc1ccccc1)C(=O)N[C@@H](Cc1ccccc1)C(=O)N[C@@H](CO)C(=O)N[C@@H](Cc1c[nH]c2ccccc12)C(=O)N[C@@H](CCCCN)C(=O)N[C@@H](CO)C(=O)O [RKLAFKPLKKFFSWKS]

MIC [22]: ≥ 87.4 µM
Structure (SMILES): C[C@H](NC(=O)[C@@H]1CCCN1C(=O)[C@H](CCC(=O)O)NC(=O)[C@H](CCC(N)=O)NC(=O)[C@H](CCCCN)NC(=O)[C@@H]1CCCN1C(=O)[C@H](C)NC(=O)[C@@H]1CCCN1C(=O)[C@H](CCCCN)NC(=O)[C@@H]1CCCN1C(=O)[C@H](CCCCN)NC(=O)[C@@H](NC(=O)[C@@H](NC(=O)[C@H](CCCN=C(N)N)NC(=O)[C@@H]1CCCN1C(=O)[C@H](CCCCN)NC(=O)[C@@H](N)CCCN=C(N)N)[C@@H](C)O)[C@@H](C)O)C(=O)N[C@H](C(=O)N[C@@H](CCC(=O)O)C(=O)N[C@@H](CCC(=O)O)C(=O)O)[C@@H](C)O [RKPRTTKPKPAPKQEPATEE]

MIC [10]: 43.5 µM (≈ 64 µg/mL)
MIC [5]: 21.7 µM (≈ 32 µg/mL)
MIC [23]: 21.7 µM (≈ 32 µg/mL)
MIC [24]: 43.5 µM (≈ 64 µg/mL)
Structure (SMILES): CC[C@H](C)[C@H](NC(=O)[C@@H](NC(=O)[C@H](CS)NC(=O)[C@@H](NC(=O)[C@H](CCCN=C(N)N)NC(=O)[C@H](CS)NC(=O)[C@H](CCCN=C(N)N)NC(=O)[C@H](CC(C)C)NC(=O)[C@H](CCC(N)=O)NC(=O)[C@@H](N)C(C)C)C(C)C)C(C)C)C(=O)N[C@@H](CCCN=C(N)N)C(=O)N[C@@H](CCCCN)C(=O)O [VQLRCRVCVIRK]
